According to paper PMC11423184 (Advanced Science, 2024):

Molecular target: T1, SWELL1 channel (VRAC; SWELL1 = LRRC8A) (Mus musculus, UniProt Q80WG5)
T1 construct: endogenous VRAC in mouse primary astrocytes and hippocampal CA1 neurons, full length; neuronal current absent in NEX-cKO
T1 sequence (Q80WG5 1-810): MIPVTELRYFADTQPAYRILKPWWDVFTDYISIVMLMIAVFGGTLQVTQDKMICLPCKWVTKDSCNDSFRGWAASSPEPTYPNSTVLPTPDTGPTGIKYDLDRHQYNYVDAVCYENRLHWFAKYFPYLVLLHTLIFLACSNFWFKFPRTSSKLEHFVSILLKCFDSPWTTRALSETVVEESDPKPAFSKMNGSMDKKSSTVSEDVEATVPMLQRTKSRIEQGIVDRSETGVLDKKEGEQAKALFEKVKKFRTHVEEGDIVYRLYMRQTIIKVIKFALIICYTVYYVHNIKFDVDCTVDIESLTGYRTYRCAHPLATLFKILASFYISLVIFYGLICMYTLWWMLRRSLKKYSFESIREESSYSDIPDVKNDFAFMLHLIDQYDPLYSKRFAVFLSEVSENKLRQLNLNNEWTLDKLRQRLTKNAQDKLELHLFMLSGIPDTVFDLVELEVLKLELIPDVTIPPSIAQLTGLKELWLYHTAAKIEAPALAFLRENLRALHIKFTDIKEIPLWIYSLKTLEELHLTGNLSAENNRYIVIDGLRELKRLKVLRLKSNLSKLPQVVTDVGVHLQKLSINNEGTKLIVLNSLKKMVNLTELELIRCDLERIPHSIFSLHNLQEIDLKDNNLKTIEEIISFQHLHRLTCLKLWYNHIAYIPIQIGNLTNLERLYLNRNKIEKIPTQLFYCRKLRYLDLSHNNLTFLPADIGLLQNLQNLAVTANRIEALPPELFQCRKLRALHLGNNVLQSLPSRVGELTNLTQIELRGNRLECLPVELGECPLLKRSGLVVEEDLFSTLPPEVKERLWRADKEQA
Assay: whole-cell patch clamp, primary astrocytes
Type: cell-based
Conditions: hypotonicity-induced SWELL1 currents; concentration not given

SMILES: CC(=O)CC(c1ccccc1)c1c(O)c2ccccc2oc1=O (stereo not shown) [Warfarin]
- whole-cell patch clamp, primary astrocytes: Warfarin, another anticoagulant of the same family, failed to inhibit hypotonicity‐induced SWELL1 currents
